The term IC50 denotes the concentration that gives 50% inhibition.

The source of these data is patent publication US8394848B2, “Compounds that modulate intracellular calcium” (Calcimedica, Inc., priority 2008, dated 2013).

T1 sequence (Q96D31 whole entry): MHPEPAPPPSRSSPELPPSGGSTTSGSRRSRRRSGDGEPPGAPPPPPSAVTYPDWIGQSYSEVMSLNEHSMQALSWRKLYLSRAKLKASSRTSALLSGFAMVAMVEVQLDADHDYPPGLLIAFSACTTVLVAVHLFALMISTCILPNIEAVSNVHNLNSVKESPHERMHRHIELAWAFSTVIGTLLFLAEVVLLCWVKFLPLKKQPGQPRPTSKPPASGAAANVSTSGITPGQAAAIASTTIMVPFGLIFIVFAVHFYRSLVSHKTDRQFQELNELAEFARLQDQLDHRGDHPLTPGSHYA

One assay addresses T1, recombinant human STIM1 and Orai1 (HEK-293 stable cells; JR251) (Homo sapiens, UniProt Q96D31).
T1 construct: c-myc (C); expressed in transfected cells
The assay is described as follows: Fluorescence-based assay of store-operated calcium entry in Orai1/STIM1 stable cells. Particulars: 50% inhibition of Peak-Basal signal. It counts as cell-based. As for the experimental part:
A. Fluorescence-Based Assay of Store-Operated Calcium Entry in Orai1/STIM1 Stable Cells.
Cells stably expressing recombinant human STIM1 and Orai1 were generated by transfecting a human Orai1 expression plasmid (pcDNA3.1-Orai1-cmyc) into HEK-293 cells stably overexpressing human STIM1 (Roos et al. 2005 JCB 169(3): 435-445). Colonies of cells stably expressing both STIM1 and Orai1 proteins were selected and then subcloned by limiting dilution. Cells were cultured at 37° C./6% CO2 in complete medium with 10% FBS and appropriate selection markers.
The day prior to performing the assay Orai1/STIM1 stable cells were plated in 50 μL of complete medium at 90-95% confluence in a 384 well plate. Cells were grown at 37° C./6% CO2 overnight. On the day of the assay, 1.5 μM fluo-4-AM (Invitrogen) in complete medium was added to the cells, which were then incubated for 1 hour at RT. Cells were washed once in Ca^2+-free HBSS (Hank's buffered saline solution) and 35 μl of Ca^2+-free HBSS was added to each well. Test compounds were added to wells in a 10 μL Ca^2+-free HBSS solution, prepared at 4.5× the desired final concentration, and incubated for 30 minutes at RT. The initial baseline fluorescence signal was then measured with a FLIPR^384 (Molecular Devices) plate reader. Calcium entry was initiated by adding 5 μl of 10×CaCl2 (10 mM) in HBSS, and changes in cellular fluorescence were measured with the FLIPR^384 plate reader. In each well, the magnitude of the fluorescence signal as a result of calcium entry into the cell was determined by calculating the difference between the peak fluorescence signal measured after calcium addition and the initial baseline fluorescence signal (designated Peak-Basal). IC50 values were typically calculated as the concentration that inhibited 50% of the Peak-Basal signal (Table A).
Turning to `O=C(Nc1scc(-c2ccc(Br)cc2)c1C(=O)O)c1ccc(C(F)(F)F)nc1` [AA], the IC50 was in the range of 1 to 10 µM.

With `O=C(Nc1scc(-c2cc3cccc(O)c3o2)c1C(=O)O)c1cc2cccc(O)c2o1` [AB], the IC50 is 1 to 10 µM.

For the compound `Cc1nnsc1C(=O)Nc1scc(-c2ccc(Br)cc2)c1C(=O)O` [A], the IC50 lay within 1 to 10 µM.

On to `O=C(Nc1scc(-c2ccc(Br)cc2)c1C(=O)O)c1nc2cccc(F)c2o1` [B], for which the IC50 is at most 0.5 µM.

Consider `O=C(Nc1scc(-c2ccc(Br)cc2)c1C(=O)O)c1nc2c(F)cccc2o1` [C], for which the IC50 is at most 0.5 µM.

With `COc1c(F)c(F)cc(C(=O)Nc2scc(-c3ccc(Br)cc3)c2C(=O)O)c1F` [L], the IC50 was at most 0.5 µM.

On to `O=C(Nc1scc(-c2ccc(Cl)cc2)c1C(=O)O)c1ccc(C(F)(F)F)nc1` [M], for which the IC50 fell in the range of 1 to 10 µM.

In the case of `O=C(Nc1scc(-c2ccc(Cl)cc2)c1C(=O)O)c1ccc2scnc2c1` [Q], the IC50 was at most 0.5 µM.

Regarding `O=C(Nc1scc(-c2ccc(Br)cc2)c1C(=O)O)OCc1ccccc1` [S], the IC50 was 1 to 10 µM.

Take `O=C(Nc1scc(-c2ccc(Cl)cc2)c1C(=O)O)c1cc(-c2ccccc2)on1` [T]: the IC50 fell in the range of 0.5 to 1 µM.

On to `O=C(Nc1scc(-c2ccc(Cl)cc2)c1C(=O)O)/C(F)=C/c1ccccc1Cl` [U], for which the IC50 is 1 to 10 µM.

On to `O=C(Nc1scc(-c2ccc(Cl)cc2)c1C(=O)O)c1cc2ccccc2nn1` [Y], for which the IC50 lay within 1 to 10 µM.

On to `O=C(Nc1scc(-c2ccc(Br)cc2)c1C(=O)O)c1cn2ccccc2n1` [Z], for which the IC50 lay in the range of 1 to 10 µM.

The next assay relates to RBL-2H3 cells. The assay is described as follows: Fluorescence-based assay of store-operated calcium entry in RBL-2H3 cells. It counts as cell-based. As to conditions: Rattus norvegicus, 50% inhibition of Upslope, thapsigargin. As for the experimental part: B. Fluorescence-Based Assay of Store-Operated Calcium Entry in RBL-2H3Cells.
RBL-2H3 cells were obtained from ATCC and maintained in complete medium with 10% FBS at 37° C./6% CO2.
The day prior to performing the assay, RBL-2H3 cells are plated in 50 μL of complete medium in a 384 well plate. Cells are grown at 37° C./6% CO2 overnight and grow to 50-60% confluence by the next day. On the assay day, 1.5 μM Fluo-4-AM dye (Invitrogen) in complete medium is added and incubated for 1 hour at RT. Cells are washed twice in Ca^2+-free HBSS buffer and 35 μL Ca^2+-free HBSS buffer is added to each well. 10 μL of a test compound prepared in a Ca^2+-free HBSS solution at 4.5× of the desired concentration is added to a well and incubated for 5 minutes at RT. 10 μL of thapsigargin prepared in a Ca^2+-free HBSS solution at 5.5× of the desired concentration (5.5 uM) is added to each well and incubated for an additional 25 minutes. The initial baseline fluorescence signal is measured with a FLIPR^384 (Molecular Devices) plate reader. 5 μL of 12× calcium in HBSS (12 mM) is added and changes in cellular fluorescence are measured with the FLIPR^384 plate reader. In each well, the change in the fluorescent signal as a function of time due to calcium entry into the cell is determined by calculating the difference between the fluorescent signal measured 7 seconds after calcium addition and the initial baseline fluorescence signal at time zero (t=0). This parameter is designated Upslope. The IC50 value is calculated as the concentration at which 50% of the Upslope is inhibited.
Take `O=C(Nc1scc(-c2cc3cccc(O)c3o2)c1C(=O)O)c1cc2cccc(O)c2o1` [AB]: the IC50 is at most 0.5 µM.

On to `Cc1nnsc1C(=O)Nc1scc(-c2ccc(Br)cc2)c1C(=O)O` [A], for which the IC50 was in the range of 1 to 10 µM.

With `O=C(Nc1scc(-c2ccc(Br)cc2)c1C(=O)O)c1nc2cccc(F)c2o1` [B], the IC50 is at most 0.5 µM.

For the compound `O=C(Nc1scc(-c2ccc(Br)cc2)c1C(=O)O)c1nc2c(F)cccc2o1` [C], the IC50 was at most 0.5 µM.

In the next assay the test system is JR251 or RBL cells. The assay is described as follows: Store-operated calcium entry, either JR251 or RBL cells, or both. The class given is cell-based.
Conditions: not given
An outline of the steps: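 FLIPR calcium-entry readout in fluo-4-loaded cells held in Ca2+-free HBSS before calcium add-back. For RBL-2H3, store depletion used thapsigargin for 25 min after a 5 min compound pre-incubation, and IC50 was based on the 7 s Upslope. For Orai1/STIM1 stable cells, compound was pre-incubated 30 min and IC50 was based on Peak-Basal.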
In the case of `N#Cc1ccc(-c2csc(NC(=O)c3cc4sccc4s3)c2C(=O)O)cc1` [4-(4-cyanophenyl)-2-(thieno[3,2-b]thiophene-2-carboxamido)thiophene-3-carboxylic acid], the IC50 is below 10 µM.

Regarding `O=C(CCc1ccccc1)Nc1scc(-c2ccc(O)cc2)c1C(=O)O` [4-(4-hydroxyphenyl)-2-(3-phenylpropanamido)thiophene-3-carboxylic acid], the IC50 is below 10 µM.

As for `COc1ccc(-c2csc(NC(=O)CCc3ccccc3)c2C(=O)O)cc1` [4-(4-methoxyphenyl)-2-(3-phenylpropanamido)thiophene-3-carboxylic acid], the 50% inhibitory concentration (IC50) is below 10 µM.

`O=C(CCc1ccccc1)Nc1scc(-c2cc3cc(Cl)ccc3o2)c1C(=O)O` [4-(5-chlorobenzofuran-2-yl)-2-(3-phenylpropanamido)thiophene-3-carboxylic acid]: the IC50 was below 10 µM.

Turning to `O=C(Nc1scc(-c2cc3cccc(-c4cc[nH]n4)c3o2)c1C(=O)O)c1cc2ccccc2o1` [4-(7-(1H-pyrazol-3-yl)benzofuran-2-yl)-2-(benzofuran-2-carboxamido)thiophene-3-carboxylic acid], the IC50 was below 10 µM.

As for `O=C(Nc1scc(-c2cc3cccc(-c4cn[nH]c4)c3o2)c1C(=O)O)c1cc2ccccc2o1` [4-(7-(1H-pyrazol-4-yl)benzofuran-2-yl)-2-(benzofuran-2-carboxamido)thiophene-3-carboxylic acid], the IC50 was below 10 µM.

As to `CC(=O)Oc1cccc2cc(-c3csc(NC(=O)c4cc5ccccc5o4)c3C(=O)O)oc12` [4-(7-acetoxybenzofuran-2-yl)-2-(benzofuran-2-carboxamido)thiophene-3-carboxylic acid], the IC50 is below 10 µM.

For the compound `O=C(Nc1scc(-c2cc3cccc(O)c3o2)c1C(=O)O)c1cc2ccccn2n1` [4-(7-hydroxybenzofuran-2-yl)-2-(pyrazolo[1,5-a]pyridine-2-carboxamido)thiophene-3-carboxylic acid], the IC50 was below 10 µM.

As for `O=C(Nc1scc(OC(=O)c2cc3ccccc3o2)c1C(=O)O)c1cc2ccccc2o1` [4-(benzofuran-2-carbonyloxy)-2-(benzofuran-2-carboxamido)thiophene-3-carboxylic acid], the IC50 is below 10 µM.

Consider `O=C(Nc1scc(OC(=O)c2cc3ccccc3o2)c1C(=O)O)OCc1ccccc1` [4-(benzofuran-2-carbonyloxy)-2-(benzyloxycarbonylamino)thiophene-3-carboxylic acid], for which the IC50 was below 10 µM.

In the case of `Cc1ccc(-c2csc(NC(=O)/C=C/c3ccco3)c2C(=O)O)cc1` [(E)-2-(3-(furan-2-yl)acrylamido)-4-p-tolylthiophene-3-carboxylic acid], the IC50 is below 10 µM.

On to `O=C(Nc1scc(/C=C/c2ccc(Cl)cc2)c1C(=O)O)c1cc2ccccc2o1` [(E)-2-(benzofuran-2-carboxamido)-4-(4-chlorostyryl)thiophene-3-carboxylic acid], for which the IC50 was below 10 µM.

As for `O=C(Nc1scc(/C=C/c2ccc(F)cc2)c1C(=O)O)c1cc2ccccc2o1` [(E)-2-(benzofuran-2-carboxamido)-4-(4-fluorostyryl)thiophene-3-carboxylic acid], the IC50 was below 10 µM.

With `N#C/C(=C\c1ccco1)C(=O)Nc1scc(-c2ccc(Cl)cc2)c1C(=O)O` [(E)-4-(4-chlorophenyl)-2-(2-cyano-3-(furan-2-yl)acrylamido)thiophene-3-carboxylic acid], the IC50 was below 10 µM.

For the compound `N#C/C(=C\c1ccccc1)C(=O)Nc1scc(-c2ccc(Cl)cc2)c1C(=O)O` [(E)-4-(4-chlorophenyl)-2-(2-cyano-3-phenylacrylamido)thiophene-3-carboxylic acid], the IC50 was below 10 µM.

On to `O=C(O)c1c(-c2ccc(Cl)cc2)csc1NC(=O)[C@@H]1CCc2ccccc2C1` [(R)-4-(4-chlorophenyl)-2-(1,2,3,4-tetrahydronaphthalene-2-carboxamido)thiophene-3-carboxylic acid], for which the IC50 is below 10 µM.

Consider `O=C(O)c1c(-c2ccc(Cl)cc2)csc1NC(=O)[C@H](F)Cc1ccccc1Cl` [(R)-4-(4-chlorophenyl)-2-(3-(2-chlorophenyl)-2-fluoropropanamido)thiophene-3-carboxylic acid], for which the IC50 is below 10 µM.

`O=C(O)c1c(-c2ccc(Cl)cc2)csc1NC(=O)[C@H]1CCc2ccccc2C1` [(S)-4-(4-chlorophenyl)-2-(1,2,3,4-tetrahydronaphthalene-2-carboxamido)thiophene-3-carboxylic acid]: the IC50 is below 10 µM.

As to `O=C(O)c1c(-c2ccc(Cl)cc2)csc1NC(=O)[C@@H](F)Cc1ccccc1Cl` [(S)-4-(4-chlorophenyl)-2-(3-(2-chlorophenyl)-2-fluoropropanamido)thiophene-3-carboxylic acid], the IC50 is below 10 µM.

Turning to `O=C(Nc1scc(-c2ccc(Br)cc2)c1C(=O)O)/C(F)=C/c1ccccc1` [(Z)-4-(4-bromophenyl)-2-(2-fluoro-3-phenylacryl amido)thiophene-3-carboxylic acid], the IC50 is below 10 µM.

Take `O=C(Nc1scc(-c2ccc(Cl)cc2)c1C(=O)O)/C(F)=C/c1ccccc1` [(Z)-4-(4-chlorophenyl)-2-(2-fluoro-3-phenylacryl amido)thiophene-3-carboxylic acid]: the IC50 was below 10 µM.

`O=C(Nc1scc(-c2ccc(Cl)cc2)c1C(=O)O)/C(F)=C/c1ccccc1Cl` [(Z)-4-(4-chlorophenyl)-2-(3-(2-chlorophenyl)-2-fluoroacrylamido)thiophene-3-carboxylic acid]: the IC50 is below 10 µM.

Take `NC(=O)c1c(-c2ccc(Br)cc2)csc1-n1c(C(=O)O)nc2ccccc21` [N-(4-(4-bromophenyl)-3-carbamoylthiophen-2-yl)-1H-benzo[d]imidazole-2-carboxylic acid]: the IC50 is below 10 µM.
